In assay [1] the target is human IL-17A / human IL-17RA (Homo sapiens (Human), UniProt Q16552). Description: Human IL-17A biochemical assay (HTRF, blocking of IL-17A binding to IL-17RA). To be noted: 0.4 nM IL-17A, 0.3 nM IL-17RA, max compound concentration 10 uM. Put shortly: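 Compounds (10-point, 2.7-fold dilution from 10 uM) preincubated 3 h at RT with 0.4 nM human IL-17A, followed by 1 h with 0.3 nM IL-17RA and 1 h with Tb-cryptate/XL665 antibodies; buffer 20 mM HEPES pH 7.5, 0.1% BSA. Inhibition derived from HTRF fluorescence ratio; IC50 by four-parameter logistic fitting.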
On the technique in general: Time-resolved FRET reads energy transfer from a long-lived donor to a nearby acceptor.

Assay [2] concerns IL-17-induced GROα secretion from HT-29 cells. Description: GROα release assay in human colorectal adenocarcinoma epithelial cell (HT-29, ELISA). It counts as cell-based. To be noted: Homo sapiens, HT-29, 48 h, 10 ng/mL IL-17A, highest concentration 10 μM, read-out: Cellular assay HT29 cell/CXCL1 IC50. Put shortly: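 IC50 values come from four-parameter fits of GROα levels, quantified by ELISA (450 nm, standard curve) in supernatants. Compounds, 4-fold serially diluted from 10 μM, were mixed 15 min with IL-17A (10 ng/mL final) before 48 h incubation with HT-29 cells at 37°C.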
In general terms: An ELISA detects its analyte on a solid surface through an enzyme-linked reagent.

Chain of human IL-17A / human IL-17RA (Q16552 24-155): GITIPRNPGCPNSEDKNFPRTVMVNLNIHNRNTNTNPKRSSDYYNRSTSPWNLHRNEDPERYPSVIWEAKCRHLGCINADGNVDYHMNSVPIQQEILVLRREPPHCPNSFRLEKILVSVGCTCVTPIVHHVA

As for `CNC(=O)C1(N2CC(C(C)(C)C)NC2=O)Cc2ccc(NC(=O)[C@@H](NC(=O)c3ccnn3C)C3CCCCC3)cc2C1` (stereo partly drawn) [Example 44, N-((1S)-2-((2-(4-(tert-butyl)-2-oxoimidazolidin-1-yl)-2-(methylcarbamoyl)-2,3-dihydro-1H-inden-5-yl)amino)-1-cyclohexyl-2-oxoethyl)-1-methyl-1H-pyrazole-5-carboxamide], the IC50 was 47 nM in assay [1] and 231 nM in assay [2].
On the same counts, the results for `Cc1nocc1C(=O)N[C@H](C(=O)Nc1ccc2c(c1)CC(N1C[C@@H](C(F)(F)F)NC1=O)C2)C(C1CC1)C1CC1` (stereo partly drawn) [Example 218, N-((2S)-1,1-dicyclopropyl-3-oxo-3-((2-((S)-2-oxo-4-(trifluoromethyl)imidazolidin-1-yl)-2,3-dihydro-1H-inden-5-yl)amino)propan-2-yl)-3-methylisoxazole-4-carboxamide] are 141 nM and 385 nM.
In the same order, the values of `Cn1nccc1C(=O)N[C@H](C(=O)Nc1ccc2c(c1)CC(C(=O)O)(N1CC3(CC3)CNC1=O)C2)C1CCCCC1` (stereo partly drawn) [Example 189, 5-((S)-2-cyclohexyl-2-(1-methyl-1H-pyrazole-5-carboxamido)acetamido)-2-(6-oxo-5,7-diazaspiro[2.5]octan-5-yl)-2,3-dihydro-1H-indene-2-carboxylic acid] are 15.3 nM and 124 nM.
In the same order, the values of `CC(C)[C@@H]1CN(CC2Cc3ccc(NC(=O)[C@@H](NC(=O)c4ccnn4C(C)C)C(C4CC4)C4CC4)cc3N2C)C(=O)N1` (stereo partly drawn) [Example 287, N-((2S)-1,1-dicyclopropyl-3-((2-(((R)-4-isopropyl-2-oxoimidazolidin-1-yl)methyl)-1-methylindolin-6-yl)amino)-3-oxopropan-2-yl)-1-isopropyl-1H-pyrazole-5-carboxamide] are 61.5 nM and 222 nM.
As to `CNC(=O)C1(N2CC(C(C)COC)NC2=O)Cc2ccc(NC(=O)[C@@H](NC(=O)c3ccnn3C)C3CCCCC3)cc2C1` (stereo partly drawn) [Example 35, N-((1S)-1-cyclohexyl-2-((2-(4-(1-methoxypropan-2-yl)-2-oxoimidazolidin-1-yl)-2-(methylcarbamoyl)-2,3-dihydro-1H-inden-5-yl)amino)-2-oxoethyl)-1-methyl-1H-pyrazole-5-carboxamide], the IC50 came out at 293 nM in assay [1] and 2020 nM in assay [2].
On the same counts, the results for `Cn1nccc1C(=O)NC(C(=O)Nc1ccc2c(c1)CC(N1C[C@@H](C(F)(F)F)NC1=O)C2)C1CCc2cc(Cl)ccc2C1` (stereo partly drawn) [Example 217, N-(1-(6-chloro-1,2,3,4-tetrahydronaphthalen-2-yl)-2-oxo-2-((2-((S)-2-oxo-4-(trifluoromethyl)imidazolidin-1-yl)-2,3-dihydro-1H-inden-5-yl)amino)ethyl)-1-methyl-1H-pyrazole-5-carboxamide] are 62.5 nM and 394 nM.
In the same order, the values of `CC(C)[C@@H]1CN(C2Cc3ccc(NC(=O)[C@@H](NC(=O)c4ccnn4C)C4CCCCC4)cc3C2)C(=O)N1` (stereo partly drawn) [Example 162, N-((1S)-1-cyclohexyl-2-((2-((R)-4-isopropyl-2-oxoimidazolidin-1-yl)-2,3-dihydro-1H-inden-5-yl)amino)-2-oxoethyl)-1-methyl-1H-pyrazole-5-carboxamide] are 540 nM and 1060 nM.
For `C#CCC1CN(C2(C(=O)NC)Cc3ccc(NC(=O)[C@@H](NC(=O)c4ccnn4C)C4CCCCC4)cc3C2)C(=O)N1` (stereo partly drawn) [Example 63, N-((1S)-1-cyclohexyl-2-((2-(methylcarbamoyl)-2-(2-oxo-4-(prop-2-yn-1-yl)imidazolidin-1-yl)-2,3-dihydro-1H-inden-5-yl)amino)-2-oxoethyl)-1-methyl-1H-pyrazole-5-carboxamide], the IC50 in assay [1] came out at 85 nM; in assay [2], 326 nM.
On the same counts, the results for `CNC(=O)C1(N2CC3(CC3)CNC2=O)Cc2ccc(NC(=O)[C@@H](NC(=O)c3c(F)cnn3C)C3CCCCC3)cc2C1` (stereo partly drawn) [Example 167, N-((1S)-1-cyclohexyl-2-((2-(methylcarbamoyl)-2-(6-oxo-5,7-diazaspiro[2.5]octan-5-yl)-2,3-dihydro-1H-inden-5-yl)amino)-2-oxoethyl)-4-fluoro-1-methyl-1H-pyrazole-5-carboxamide] are 127 nM and 220 nM.
In the same order, the values of `CNC(=O)C1(N2C[C@@H](C(C)C)NC2=O)Cc2ccc(NC(=O)[C@@H](NC(=O)c3ccnn3C)C3CCCC3)cc2C1` (stereo partly drawn) [Example 46, N-((1S)-1-cyclopentyl-2-((2-((R)-4-isopropyl-2-oxoimidazolidin-1-yl)-2-(methylcarbamoyl)-2,3-dihydro-1H-inden-5-yl)amino)-2-oxoethyl)-1-methyl-1H-pyrazole-5-carboxamide] are 260 nM and 533 nM.
Take `CNC(=O)C1(N2CC3(CC3)CNC2=O)Cc2ccc(NC(=O)[C@@H](NC(=O)c3ccc(C#N)n3C)C3CCCCC3)cc2C1` (stereo partly drawn) [Example 131, 5-cyano-N-((1S)-1-cyclohexyl-2-((2-(methylcarbamoyl)-2-(6-oxo-5,7-diazaspiro[2.5]octan-5-yl)-2,3-dihydro-1H-inden-5-yl)amino)-2-oxoethyl)-1-methyl-1H-pyrrole-2-carboxamide]: the IC50 in assay [1] was 5.5 nM; in assay [2] it was 14.9 nM.
With `Cc1nonc1C(=O)N[C@H](C(=O)Nc1ccc2c(c1)CC(c1nc(-c3ccccc3)c[nH]1)(N1CC3(CC3)CNC1=O)C2)C1CCC(F)(F)CC1` (stereo partly drawn) [Example 205, N-((1S)-1-(4,4-difluorocyclohexyl)-2-oxo-2-((2-(6-oxo-5,7-diazaspiro[2.5]octan-5-yl)-2-(4-phenyl-1H-imidazol-2-yl)-2,3-dihydro-1H-inden-5-yl)amino)ethyl)-4-methyl-1,2,5-oxadiazole-3-carboxamide], the IC50 was 246 nM in assay [1] and 193 nM in assay [2].
On the same counts, the results for `CNC(=O)C1(N2CC(C(C)c3ccccc3)NC2=O)Cc2ccc(NC(=O)[C@@H](NC(=O)c3ccnn3C)C3CCCCC3)cc2C1` (stereo partly drawn) [Example 48, N-((1S)-1-cyclohexyl-2-((2-(methylcarbamoyl)-2-(2-oxo-4-(1-phenylethyl)imidazolidin-1-yl)-2,3-dihydro-1H-inden-5-yl)amino)-2-oxoethyl)-1-methyl-1H-pyrazole-5-carboxamide] are 161 nM and 1270 nM.
In the same order, the values of `CNC(=O)C1(N2CC(Cc3ccc(C(F)(F)F)cc3)NC2=O)Cc2ccc(NC(=O)[C@@H](NC(=O)c3ccnn3C)C3CCCCC3)cc2C1` (stereo partly drawn) [Example 80, N-((1S)-1-cyclohexyl-2-((2-(methylcarbamoyl)-2-(2-oxo-4-(4-(trifluoromethyl)benzyl)imidazolidin-1-yl)-2,3-dihydro-1H-inden-5-yl)amino)-2-oxoethyl)-1-methyl-1H-pyrazole-5-carboxamide] are 157 nM and 971 nM.
On the same counts, the results for `COCC1(N2C[C@@H](C(C)C)NC2=O)Cc2ccc(NC(=O)[C@@H](NC(=O)c3ccnn3C)C(C3CC3)C3CC3)cc2C1` (stereo partly drawn) [Example 245, N-((2S)-1,1-dicyclopropyl-3-((2-((R)-4-isopropyl-2-oxoimidazolidin-1-yl)-2-(methoxymethyl)-2,3-dihydro-1H-inden-5-yl)amino)-3-oxopropan-2-yl)-1-methyl-1H-pyrazole-5-carboxamide] are 52.4 nM and 92.5 nM.
`CNC(=O)C1(N2CC(C)NC2=O)Cc2cc3nc([C@@H](NC(=O)c4ccnn4C)C4CCCCC4)[nH]c3cc2C1` (stereo partly drawn) [Example 5, 2-((S)-cyclohexyl(1-methyl-1H-pyrazole-5-carboxamido)methyl)-N-methyl-6-(4-methyl-2-oxoimidazolidin-1-yl)-1,5,6,7-tetrahydroindeno[5,6-d]imidazole-6-carboxamide]: the IC50 in assay [1] amounted to 410 nM; in assay [2] it was 353 nM.
Take `CNC(=O)C1(N2CC3(CC3)CNC2=O)Cc2ccc(NC(=O)[C@@H](NC(=O)c3ccnn3C)C3CCC(F)(F)CC3)cc2C1` (stereo partly drawn) [Example 142, N-((1S)-1-(4,4-difluorocyclohexyl)-2-((2-(methylcarbamoyl)-2-(6-oxo-5,7-diazaspiro[2.5]octan-5-yl)-2,3-dihydro-1H-inden-5-yl)amino)-2-oxoethyl)-1-methyl-1H-pyrazole-5-carboxamide]: the IC50 in assay [1] worked out at 107 nM; in assay [2] it was 197 nM.
In the same order, the values of `CNC(=O)C1(N2CC3(CCC3)CNC2=O)Cc2ccc(NC(=O)[C@@H](NC(=O)c3nonc3C)C3CCCCC3)cc2C1` (stereo partly drawn) [Example 110, N-((1S)-1-cyclohexyl-2-((2-(methylcarbamoyl)-2-(7-oxo-6,8-diazaspiro[3.5]nonan-6-yl)-2,3-dihydro-1H-inden-5-yl)amino)-2-oxoethyl)-4-methyl-1,2,5-oxadiazole-3-carboxamide] are 15 nM and 76.5 nM.
On the same counts, the results for `Cc1nonc1C(=O)N[C@H](C(=O)Nc1ccc2c(c1)CC(C(C)C)(N1CC(C(F)(F)F)NC1=O)C2)C(C1CC1)C1CC1` (stereo partly drawn) [Example 212, N-((2S)-1,1-dicyclopropyl-3-((2-isopropyl-2-(2-oxo-4-(trifluoromethyl)imidazolidin-1-yl)-2,3-dihydro-1H-inden-5-yl)amino)-3-oxopropan-2-yl)-4-methyl-1,2,5-oxadiazole-3-carboxamide] are 687 nM and 1030 nM.
On the same counts, the results for `Cc1nonc1C(=O)N[C@H](C(=O)Nc1ccc2c(c1)OC(CN1C[C@@H](C(F)(F)F)NC1=O)C2)C1CCC(F)(F)CC1` (stereo partly drawn) [Example 257, N-((1S)-1-(4,4-difluorocyclohexyl)-2-oxo-2-((2-(((S)-2-oxo-4-(trifluoromethyl)imidazolidin-1-yl)methyl)-2,3-dihydrobenzofuran-6-yl)amino)ethyl)-4-methyl-1,2,5-oxadiazole-3-carboxamide] are 938 nM and 2500 nM.
